This note sets out measurements from ChEMBL document CHEMBL1133000, “Inhibition of protein kinase C(alpha) by dequalinium analogues: dependence on linker length and geometry” (J Med Chem, 2000).

The target in this experiment is Protein kinase C alpha type (Homo sapiens, UniProt P17252). As to the kind of experiment: Inhibition of human recombinant PKCalpha.
In general, IC50 refers to the concentration needed to halve the response being measured. Turning to `Cc1cc(N)c2ccccc2[n+]1CCCC/C=C\CCCC[n+]1c(C)cc(N)c2ccccc21`, the IC50 was 52 µM.

Take `Cc1cc(N)c2ccccc2[n+]1CCCC/C=C/CCCC[n+]1c(C)cc(N)c2ccccc21`: the IC50 came out at 12 µM.

As for `CCCC/C=C/CCCC[n+]1c(C)cc(N)c2ccccc21`, the IC50 came to 137 µM.
